# Reference: patent publication US20250382344A1, “Soluble GLP1/GIP/NPY2 Receptor Triple Agonists” (Boehringer Ingelheim International GmH, priority 2024, published 2025)
# pEC50: −log10 of the molar value. Where two headings read alike, the source gives them in different places.
# What was measured:
# hGIPR = target: T1, hGIPR (Homo sapiens, UniProt P48546); experiment: hGIPR CreLuc assay in 0.5% and 100% plasma (CHO CRE-luciferase reporter cells); format: cell-based; conditions: 0.5% human plasma, read-out: hGIPR 0.5% hP
# T1 construct: expressed in transfected cells; host or cells: CHO CRE-luciferase reporter cells
# T1 sequence (P48546 22-466): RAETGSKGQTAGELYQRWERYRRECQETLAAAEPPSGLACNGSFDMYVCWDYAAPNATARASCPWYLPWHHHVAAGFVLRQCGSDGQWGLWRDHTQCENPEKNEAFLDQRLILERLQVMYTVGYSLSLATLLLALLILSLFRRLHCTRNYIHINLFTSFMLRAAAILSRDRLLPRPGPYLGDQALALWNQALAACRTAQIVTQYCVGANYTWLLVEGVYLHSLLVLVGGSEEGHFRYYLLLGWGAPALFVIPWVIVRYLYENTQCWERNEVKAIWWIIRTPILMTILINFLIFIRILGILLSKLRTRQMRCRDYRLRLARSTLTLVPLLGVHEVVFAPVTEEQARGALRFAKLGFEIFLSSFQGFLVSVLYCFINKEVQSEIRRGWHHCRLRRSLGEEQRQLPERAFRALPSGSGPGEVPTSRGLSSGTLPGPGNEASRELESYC
# hNPY2R = target: T2, hNPY2R (Homo sapiens, UniProt P49146); experiment: hNPY2R CreLuc assay in 0.5% and 100% plasma (HEK-293 CRE-luciferase reporter cells); format: cell-based; conditions: HEK-293 reporter cells
# T2 construct: expressed in transfected cells; host or cells: HEK-293 CRE-luciferase reporter cells
# T2 sequence (P49146 1-381): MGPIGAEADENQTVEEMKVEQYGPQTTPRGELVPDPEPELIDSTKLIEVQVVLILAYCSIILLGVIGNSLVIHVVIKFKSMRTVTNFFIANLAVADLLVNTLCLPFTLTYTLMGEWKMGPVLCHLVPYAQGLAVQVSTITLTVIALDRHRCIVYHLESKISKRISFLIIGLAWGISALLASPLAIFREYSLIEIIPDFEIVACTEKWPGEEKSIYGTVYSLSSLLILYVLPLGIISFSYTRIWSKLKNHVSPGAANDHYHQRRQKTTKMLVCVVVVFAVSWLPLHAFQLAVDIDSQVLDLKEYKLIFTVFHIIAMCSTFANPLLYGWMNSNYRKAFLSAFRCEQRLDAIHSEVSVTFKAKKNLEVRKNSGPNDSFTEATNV
# Excerpt: CHO and HEK-293 recombinant cell lines express a luciferase reporter gene under control of the CAMP responsive element (CRE). As a second recombinant protein the GLP-1 and NPY2 receptors were expressed in the reporter gene HEK cells, and the GIP receptor was expressed in the reporter gene CHO cells, respectively. Stimulation of these recombinant cells with an agonist leads to an increase of intracellular CAMP levels. In the presence of CAMP, the transcription factor CRE binding protein (CREB) binds to the CRE and to the CREB binding protein (CBP), which leads to transcription of the luciferase reporter gene. Peptides upon serial-dilution in 100% DMSO were transferred into 384-well assay plates with 5 μl pre-dispensed assay buffer (1×HBSS, 20 mM HEPES, pH7.4 supplemented with 0.5% human plasma) using acoustic dispensing on a Labcyte ECHO. Cryo-preserved transgenic reporter gene cells were thawed in assay buffer. 20 μl (10.000 cells/well) were added to the plate with the peptides and incubated for 4 hours at 37° C. in a humidified incubator. Following incubation, assay plates are equilibrated to room temperature, followed by addition of 25 μl of Bright-Glo™ Luciferase reagent, incubation at room temperature for 10 minutes and analysis of luminescence (Envision Reader). […] EC50 values were calculated by non-linear regression using sigmoid concentration-response with variable slope.
# The same assays were run in the presence of 100% plasma with no additional buffer constituents.
# [1] = Solubility in 0.1 M phosphate buffer at pH 7; format: physicochemical; conditions: 0.1 M phosphate buffer at pH 7, 10 mg/mL final peptide concentration, shaking 2 hours at room temperature, peptides as TFA-salts; measured sample pH 6.5-7.0
# [2] = 100% human plasma, read-out: hNPY2R 100% hP
smiles,measurement,setting,value
"CC[C@H](C)[C@H](NC(=O)[C@H](CC(C)C)NC(=O)[C@H](Cc1c[nH]cn1)NC(=O)[C@H](CCCNC(=N)N)NC(=O)[C@@H](NC(=O)[C@H](Cc1ccccc1)NC(=O)[C@H](CCC(=O)O)NC(=O)C(C)(C)NC(=O)[C@H](CCC(N)=O)NC(=O)[C@H](C)NC(=O)[C@H](CCC(N)=O)NC(=O)[C@H](CCCCN)NC(=O)[C@H](CCC(=O)O)NC(=O)[C@H](CC(C)C)NC(=O)C(C)(C)NC(=O)[C@@H](NC(=O)[C@H](CO)NC(=O)[C@H](Cc1ccc(O)cc1)NC(=O)[C@H](CC(=O)O)NC(=O)[C@H](CO)NC(=O)[C@@H](NC(=O)[C@H](Cc1ccccc1)NC(=O)[C@@H](NC(=O)CNC(=O)[C@H](CCC(=O)O)NC(=O)C(C)(C)NC(=O)[C@@H](N)Cc1ccc(O)cc1)[C@@H](C)O)[C@@H](C)O)[C@@H](C)CC)C(C)C)C(=O)N[C@@H](CC(N)=O)C(=O)N[C@@H](CCCCNC(=O)[C@@H](N)CCCCNC(=O)[C@H](CCC(=O)O)NC(=O)CC[C@H](NC(=O)CC[C@H](NC(=O)CC[C@H](NC(=O)CC[C@H](NC(=O)CC[C@H](NC(=O)CC[C@H](NC(=O)CCCCCCCCCCCCCCCCC(=O)O)C(=O)O)C(=O)O)C(=O)O)C(=O)O)C(=O)O)C(=O)O)C(=O)N[C@@H](CC(C)C)C(=O)N[C@H](C(=O)N[C@@H](CCCNC(=N)N)C(=O)N[C@@H](CCC(N)=O)C(=O)N[C@@H](CCCNC(=N)N)C(=O)N[C@@H](Cc1ccc(O)cc1)C(N)=O)[C@@H](C)O [Compound 32, Y-Aib-E-G-T-F-T-S-D-Y-S-I-Aib-L-E-K-Q-A-Q-Aib-E-F-V-R-H-L-I-N-K(1,3)-L-T-R-Q-R-Y-NH2.C18DA-gGlu-gGlu-gGlu-gGlu-gGlu-gGlu-Glu-eLys(1,2)]",pEC50,hGIPR,9.30
same,pEC50,"hNPY2R; 0.5% human plasma, read-out: hNPY2R 0.5% hP",7.77
same,solubility at 2 h,[1],9.1 mg/mL
"CC[C@H](C)[C@H](NC(=O)[C@H](CC(C)C)NC(=O)[C@H](Cc1c[nH]cn1)NC(=O)[C@H](CCCNC(=N)N)NC(=O)[C@@H](NC(=O)[C@H](Cc1ccccc1)NC(=O)[C@H](C)NC(=O)C(C)(C)NC(=O)[C@H](CCC(N)=O)NC(=O)[C@H](C)NC(=O)[C@H](CCC(N)=O)NC(=O)[C@H](CCCCN)NC(=O)[C@H](CCC(=O)O)NC(=O)[C@H](CC(C)C)NC(=O)C(C)(C)NC(=O)[C@@H](NC(=O)[C@H](CO)NC(=O)[C@H](Cc1ccc(O)cc1)NC(=O)[C@H](CC(=O)O)NC(=O)[C@H](CO)NC(=O)[C@@H](NC(=O)[C@H](Cc1ccccc1)NC(=O)[C@@H](NC(=O)CNC(=O)[C@H](CCC(=O)O)NC(=O)C(C)(C)NC(=O)[C@@H](N)Cc1ccc(O)cc1)[C@@H](C)O)[C@@H](C)O)[C@@H](C)CC)C(C)C)C(=O)N[C@@H](CC(N)=O)C(=O)N[C@@H](CCCCNC(=O)CC[C@H](NC(=O)CC[C@H](NC(=O)CC[C@H](NC(=O)CC[C@H](NC(=O)CC[C@H](NC(=O)CC[C@H](NC(=O)CC[C@H](NC(=O)CCCCCCCCCCCCCCCCC(=O)O)C(=O)O)C(=O)O)C(=O)O)C(=O)O)C(=O)O)C(=O)O)C(=O)O)C(=O)NC(C)(C)C(=O)N[C@H](C(=O)N[C@@H](CCCNC(=N)N)C(=O)N[C@@H](CCC(N)=O)C(=O)N[C@@H](CCCNC(=N)N)C(=O)N[C@@H](Cc1ccc(O)cc1)C(N)=O)[C@@H](C)O [Compound 38, Y-Aib-E-G-T-F-T-S-D-Y-S-I-Aib-L-E-K-Q-A-Q-Aib-A-F-V-R-H-L-I-N-K(1,3)-Aib-T-R-Q-R-Y-NH2.C18DA-gGlu-gGlu-gGlu-gGlu-gGlu-gGlu-gGlu(1,2)]",pEC50,hGIPR,9.22
same,pEC50,hNPY2R; [2],6.85
same,solubility at 2 h,[1],4.3 mg/mL
"CC[C@H](C)[C@H](NC(=O)[C@H](CC(C)C)NC(=O)[C@H](Cc1c[nH]cn1)NC(=O)[C@H](CCCNC(=N)N)NC(=O)[C@@H](NC(=O)[C@H](Cc1ccccc1)NC(=O)[C@H](CCC(=O)O)NC(=O)C(C)(C)NC(=O)[C@H](CCC(N)=O)NC(=O)[C@H](C)NC(=O)[C@H](CCC(N)=O)NC(=O)[C@H](CCCCN)NC(=O)[C@H](CCC(=O)O)NC(=O)[C@H](CC(C)C)NC(=O)C(C)(C)NC(=O)[C@@H](NC(=O)[C@H](CO)NC(=O)[C@H](Cc1ccc(O)cc1)NC(=O)[C@H](CC(=O)O)NC(=O)[C@H](CO)NC(=O)[C@@H](NC(=O)[C@H](Cc1ccccc1)NC(=O)[C@@H](NC(=O)CNC(=O)[C@H](CCC(=O)O)NC(=O)C(C)(C)NC(=O)[C@@H](N)Cc1ccc(O)cc1)[C@@H](C)O)[C@@H](C)O)[C@@H](C)CC)C(C)C)C(=O)N[C@@H](CC(N)=O)C(=O)N[C@@H](CCCCNC(=O)[C@@H](N)CCCCNC(=O)CC[C@H](NC(=O)CC[C@H](NC(=O)CC[C@H](NC(=O)CC[C@H](NC(=O)CC[C@H](NC(=O)CC[C@H](NC(=O)CCCCCCCCCCCCCCCCCCC(=O)O)C(=O)O)C(=O)O)C(=O)O)C(=O)O)C(=O)O)C(=O)O)C(=O)N[C@@H](CC(C)C)C(=O)N[C@H](C(=O)N[C@@H](CCCNC(=N)N)C(=O)N[C@@H](CCC(N)=O)C(=O)N[C@@H](CCCNC(=N)N)C(=O)N[C@@H](Cc1ccc(O)cc1)C(N)=O)[C@@H](C)O [Compound 39, Y-Aib-E-G-T-F-T-S-D-Y-S-I-Aib-L-E-K-Q-A-Q-Aib-E-F-V-R-H-L-I-N-K(1,3)-L-T-R-Q-R-Y-NH2.C20DA-gGlu-gGlu-gGlu-gGlu-gGlu-gGlu-eLys(1,2)]",pEC50,hGIPR,9.05
same,pEC50,hNPY2R; [2],6.92
same,solubility at 2 h,[1],4.5 mg/mL
"CC[C@H](C)[C@H](NC(=O)[C@H](CC(C)C)NC(=O)[C@H](Cc1c[nH]cn1)NC(=O)[C@H](CCCNC(=N)N)NC(=O)[C@@H](NC(=O)[C@H](Cc1ccccc1)NC(=O)[C@H](C)NC(=O)C(C)(C)NC(=O)[C@H](CCC(N)=O)NC(=O)[C@H](C)NC(=O)[C@H](CCC(N)=O)NC(=O)[C@H](CCCCN)NC(=O)[C@H](CCC(=O)O)NC(=O)[C@H](CC(C)C)NC(=O)C(C)(C)NC(=O)[C@@H](NC(=O)[C@H](CO)NC(=O)[C@H](Cc1ccc(O)cc1)NC(=O)[C@H](CC(=O)O)NC(=O)[C@H](CO)NC(=O)[C@@H](NC(=O)[C@H](Cc1ccccc1)NC(=O)[C@@H](NC(=O)CNC(=O)[C@H](CCC(=O)O)NC(=O)C(C)(C)NC(=O)[C@@H](N)Cc1ccc(O)cc1)[C@@H](C)O)[C@@H](C)O)[C@@H](C)CC)C(C)C)C(=O)N[C@@H](CC(N)=O)C(=O)N[C@@H](CCCCNC(=O)COCCOCCNC(=O)CC[C@H](NC(=O)CC[C@H](NC(=O)CC[C@H](NC(=O)CC[C@H](NC(=O)CC[C@H](NC(=O)CC[C@H](NC(=O)CCCCCCCCCCCCCCCCCCC(=O)O)C(=O)O)C(=O)O)C(=O)O)C(=O)O)C(=O)O)C(=O)O)C(=O)NC(C)(C)C(=O)N[C@H](C(=O)N[C@@H](CCCNC(=N)N)C(=O)N[C@@H](CCC(N)=O)C(=O)N[C@@H](CCCNC(=N)N)C(=O)N[C@@H](Cc1ccc(O)cc1)C(N)=O)[C@@H](C)O [Compound 99, Y-Aib-E-G-T-F-T-S-D-Y-S-I-Aib-L-E-K-Q-A-Q-Aib-A-F-V-R-H-L-I-N-K(1,3)-Aib-T-R-Q-R-Y-NH2.C20DA-gGlu-gGlu-gGlu-gGlu-gGlu-gGlu-OEG(1,2)]",pEC50,hGIPR,9.30
same,pEC50,hNPY2R; [2],6.90
same,solubility at 2 h,[1],10 mg/mL
